Reference: BindingDB's records for doi:10.1021/cb0500042 (Suny Stony Brook, 2006)

Key:
[1] = target: T1, Enoyl-[acyl-carrier-protein] reductase [NADH] (Mycobacterium tuberculosis (strain ATCC 25618 / H37Rv), UniProt P9WGR1); experiment: Enoyl-CoA Reductase Inhibition Assay; conditions: pH 6.8; 22 °C
T1 sequence (P9WGR1 whole entry): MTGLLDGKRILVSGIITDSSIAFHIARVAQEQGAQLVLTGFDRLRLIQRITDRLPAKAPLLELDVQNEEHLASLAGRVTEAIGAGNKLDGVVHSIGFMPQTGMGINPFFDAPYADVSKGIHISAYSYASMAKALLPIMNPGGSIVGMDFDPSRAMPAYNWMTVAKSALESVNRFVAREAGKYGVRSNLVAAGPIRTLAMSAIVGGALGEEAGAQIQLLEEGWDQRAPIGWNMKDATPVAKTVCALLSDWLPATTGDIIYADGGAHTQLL
Protocol: The assay measured the NADH-dependent catalysis of a DD-CoA substrate as a decrease in 340 nm absorbance resulting from conversion of NADH to NAD. The absorbance OD readings were taken on a microreader. The IC50 values were determined using at least eight concentrations, with each concentration assayed in triplicate under saturating substrate conditions. The values were calculated from plots of enzyme activity versus the log of the inhibitor concentration using the GraFit IC50 four-parameter fit software.

[2] = target: T1, Enoyl-[acyl-carrier-protein] reductase [NADH]; experiment: Measurement of Inhibition Constants; conditions: pH 6.8; 22 °C
Protocol: Inhibition constants (Ki) were calculated by determining the kcat and Km (DDCoA) values at several fixed inhibitor concentrations. The inhibition data were analyzed using the standard equation for uncompetitive inhibition. For compounds with Ki values in the low nanomolar range, initial velocities were determined at a fixed substrate concentration and the data were fit to the equation: vi/v0 = (Km + S)/(Km + S[1 + I/ Ki]). Where vi and v0 are the initial velocities in the presence and absence of inhibitor. […] Data fitting was performed using Grafit 4.0 (Erithacus Software Ltd.).

CCCCCCCCCCCCCCc1ccc(Oc2ccccc2)c(O)c1 [2-phenoxy-5-tetradecylphenol]
IC50 [1]: 0.15 µM
Ki [2]: 0.0303 µM

CCCCCCCCc1ccc(Oc2ccccc2)c(O)c1 [5-Octyl-2-phenoxy-phenol]
Ki [2]: 0.0011 µM

CCCCCCc1ccc(Oc2ccccc2)c(O)c1 [5-hexyl-2-phenoxyphenol]
IC50 [1]: 0.011 µM
Ki [2]: 0.0094 µM

CCCCCc1ccc(Oc2ccccc2)c(O)c1 [5-pentyl-2-phenoxylphenol]
Ki [2]: 0.0118 µM

NC(=O)C1=CN([C@@H]2O[C@H](CO[P@@](=O)(O)O[P@@](=O)(O)OC[C@H]3O[C@@H](n4cnc5c(N)ncnc54)[C@H](O)[C@@H]3O)[C@@H](O)[C@H]2O)C=C[C@@H]1C(=O)c1ccncc1 [[[(2R,3S,4R,5R)-5-(6-aminopurin-9-yl)-3,4-dihydroxy-oxolan-2-yl]methoxy-hydroxy-phosphoryl]oxy-[[(2R,3S,4R,5R)-5-[(4S)-3-carbamoyl-4-(pyridine-4-carbonyl)-4H-pyridin-1-yl]-3,4-dihydroxy-oxolan-2-yl]methoxy]phosphinic acid]
Ki [2]: 0.00075 µM
